Test results reported in patent publication EP1202724B1, “METHOD FOR TREATING CHRONIC PAIN USING MEK INHIBITORS” (WARNER-LAMBERT COMPANY, priority 1999, dated 2001).
“Also recorded” adds a separate entry of the source.

Assays:
[1] = system: CCI-induced static allodynia; assay: static allodynia in CCI animals after intrathecal administration of other MEK inhibitors (Biological Example 3); type: in vivo, rat; settings: for magnitude of the antiallodynic effect: intrathecal, 30µg of PD 184352 compared with 100µg of pregabalin
Excerpt: (§1) Animals were anaesthetised with 2% isoflurane 1:4 O2/N2O mixture maintained during surgery via a nose cone. The sciatic nerve was ligated as previously described by Bennett and Xie, 1988. Animals were placed on a homeothermic blanket for the duration of the procedure. After surgical preparation the common sciatic nerve was exposed at the middle of the thigh by blunt dissection through biceps femoris. Proximal to the sciatic trifurcation, about 7mm of nerve was freed of adhering tissue and 4 ligatures (4-0 silk) were tied loosely around it with about 1mm spacing. The incision was closed in layers and the wound treated with topical antibiotics.
(§2) PD 198306 and pregabalin were administered intrathecally in a volume of 10 µl using a 100 µl Hamilton syringe by exposing the spine of the rats under brief isoflurane anaesthesia. Injections were made into the intrathecal space between lumbar region 5-6 with a 10 mm long 27 gauge needle. Penetrations were judged successful if there was a tail flick response. The wound was sealed with an autoclip and rats appeared fully awake within 2-3 min following injection.
(§3) Mechanical hypersensitivity was measured using Semmes-Weinstein von Frey hairs (Stoelting, Illinois, U.S.A.). Animals were placed into wire mesh bottom cages allowing access to the underside of their paws. Animals were habituated to this environment prior to the start of the experiment. Mechanical hypersensitivity was tested by touching the plantar surface of the animals right hind paw with von Frey hairs in ascending order of force ( 0.7, 1.2, 1.5, 2, 3.6, 5.5, 8.5, 11.8, 15.1 and 29g) for up to 6sec. Once a withdrawal response was established, the paw was re-tested, starting with the next descending von Frey hair until no response occurred. The highest force of 29g lifted the paw as well as eliciting a response, thus represented the cut off point. The lowest amount of force required to elicit a response was recorded as the paw withdrawal threshold (PWT) in grams.
The animals and methods for developing chronic constriction injury in the rat, injecting test compounds, and evaluation of static allodynia were according to Example 2 above. […] Static allodynia was assessed with von Frey hairs, before (baseline, BL) and 0.5h, 1h and 2h after intrathecal administration of the compounds
Pregabalin was dissolved in water. All compounds were administered intrathecally in a 10µl volume.
(§4) Data were analysed using a Kruskall-Wallis ANOVA for non-parametric results, followed when significant by Mann-Whitney's t test vs vehicle group.

[2] = system: streptozocin-induced static allodynia; assay: streptozocin-induced static allodynia, von Frey hairs, oral administration (Biological Example 1); type: in vivo, rat
Experimental: Male Sprague Dawley rats (250-300g), obtained from Bantin and Kingman, (Hull, U.K.) were housed in groups of 3. All animals were kept under a 12h light/dark cycle (lights on at 07h 00min) with food and water ad libitum. All experiments were carried out by an observer blind to drug treatments.
Diabetes was induced in rats by a single i.p. injection of streptozocin (50 mg/kg) as described previously (Courteix et al., 1993).
as §3, with “to 6 sec.” for “to 6sec.”, “of 29 g” for “of 29g”
PD 198306 [N-Cyclopropylmethoxy-3,4,5-trifluoro-2-(4-iodo-2-methylphenylamino)-benzamide] and Cl-1008 (pregabalin) were synthesized at Parke-Davis (Ann Arbor, Ml, USA). PD 198306 was suspended in cremophor:ethanol:water (1:1:8) vehicle. Pregabalin was dissolved in water. Both compounds were administered orally. Streptozocin (Aldrich, UK) was dissolved in 0.9% w/v NaCI and administered intraperitoneally. Drug administrations were made in a volume of 1 ml/kg.
The static allodynia data were analysed using a Kruskall-Wallis ANOVA for non-parametric results, followed when significant by Mann-Whitney's t test.
Static allodynia was assessed with von Frey hairs, before (baseline, BL) and 1h after oral administration of PD 198306 (30mg/kg, p.o.), vehicle (cremophor:ethanol:water, 1:1:8) or pregabalin (30mg/kg, p.o.) (test). Animals were administered again the same compounds on the following day, both in the morning and the afternoon. Static allodynia was assessed only before and 1h after the afternoon administration, in order to minimise the habituation of the animals to the testing conditions. Animals treated with pregabalin received water in the morning administration, in order to avoid the potential development of tolerance to the compound with repeated administration.

[3] = system: streptozocin-induced static allodynia; assay: streptozocin-induced static allodynia, von Frey hairs, oral, intrathecal or intraplantar administration (Biological Example 2); type: in vivo, rat
Experimental: (§5) Male Sprague Dawley rats (250-300g), obtained from Charles River, Margate, U.K.) were housed in groups of 3-6. All animals were kept under a 12h light/dark cycle (lights on at 07h 00min) with food and water ad libitum. All experiments were carried out by an observer blind to drug treatments.
Diabetes was induced in rats by a single i.p. injection of streptozocin (50mg/kg) as described previously (Courteix et al., 1993).
as §2, §3
(§6) Static allodynia was assessed with von Frey hairs, before (baseline, BL) and 0.5h, 1h and 2h after intrathecal or intraplantar administration of PD 198306 (1-30µg, i.t.), vehicle (cremophor:ethanol:water, 1:1:8) or pregabalin (10µg, i.t). For oral administration experiments, static allodynia was assessed with von Frey hairs, before (baseline, BL) and 1h after oral administration of PD 198306 (3-30mg/kg, p.o.), vehicle (cremophor:ethanol:water, 1:1:8) or pregabalin (30mg/kg, p.o.). Animals were administered again the same compounds on the following day, both in the morning and the afternoon. Static allodynia was assessed before and 1h after the morning administration. In the afternoon static allodynia was assessed before, 1h, 2h and 3h after administration for streptozocin treated animals. CCI animals were assessed before, 1h and 2h after administration
(§7) PD 198306 and pregabalin were synthesised at Parke-Davis (Ann Arbor, Ml, USA). PD 198306 was suspended in cremophor:ethanol:water (1:1:8) vehicle. Pregabalin was dissolved in water. Both compounds were administered orally, intrathecally or intraplantar in volumes of 1ml/kg, 10µl and 100µl respectively. Streptozocin (Aldrich, UK) was dissolved in 0.9% w/v NaCl and administered intraperitoneally in a volume of 1ml/kg.
as §4

[4] = system: CCI-induced static allodynia; assay: CCI-induced static allodynia (chronic constriction injury of the sciatic nerve), von Frey hairs (Biological Example 2); type: in vivo, rat
Experimental: as §5, §1, §2, §3, §6, §7, §4

[5] = biological target: MEK; assay: affinity (binding affinities) of the MEK inhibitors; settings: affinity of the MEK inhibitors tested in the CCI model
[6] = system: APK; assay: APK IC50; type: biochemical
[7] = single administration 30mg/kg p.o., 1h after administration
[8] = intrathecal, streptozocin animals

O=C(NOCC1CC1)c1ccc(F)c(F)c1Nc1ccc(I)cc1Cl [PD 184352]
duration of antiallodynic effect post-injection ([1]; intrathecal 30µg): 30 min | effect on static allodynia ([1]; intrathecal 30µg): blocked the maintenance of static allodynia | magnitude of the antiallodynic effect [1]: similar

Cc1cc(I)ccc1Nc1c(C(=O)NOCC2CC2)cc(F)c(F)c1F [PD 198306, N-Cyclopropylmethoxy-3,4,5-trifluoro-2-(4-iodo-2-methylphenylamino)-benzamide]
streptozocin-induced static allodynia ([2]; 30mg/kg p.o., 1h after the third administration (administered twice more on the following day)): significantly blocked | persistence of the effects on streptozocin-induced static allodynia ([2]; 30mg/kg p.o., day after the third administration): had disappeared by the following day | streptozocin-induced static allodynia [2, 7]: had no effect | duration of block of streptozocin-induced static allodynia ([3]; 30mg/kg p.o., after the third administration): 2 h | static allodynia ([3]; intraplantar 3mg/100µl, streptozocin animals): had no effect | maintenance of static allodynia ([3]; intrathecal 30µg (highest dose), streptozocin animals): totally blocked; also recorded: significantly blocked | maintenance of static allodynia ([3]; intrathecal 1-30µg, streptozocin animals): dose-dependently blocked | duration of antiallodynic effect [3, 8]: up to 1 h | minimum effective dose (MED) [3, 8]: 3 µg | duration of antiallodynic effect ([3]; intrathecal, streptozocin animals, listed as PD198306): 1 h | streptozocin-induced static allodynia ([3]; p.o., 30mg/kg, after the third administration (3 doses over two days), 30 mg/kg): transient effect; also recorded: significantly blocked | streptozocin-induced static allodynia ([3]; single administration 3-30mg/kg p.o., 1h after administration): had no effect | CCI-induced static allodynia ([4]; 3-30mg/kg p.o., single or multiple administration): had no effect; also recorded: neither a single or multiple administration of PD 198306 (3-30mg/kg, p.o) had any effect | static allodynia ([4]; intraplantar 3mg/100µl, CCI animals): had no effect | maintenance of static allodynia ([4]; intrathecal 30µg (highest dose), CCI animals): totally blocked; also recorded: significantly blocked | maintenance of static allodynia ([4]; intrathecal 1-30µg, CCI animals): dose-dependently blocked | duration of antiallodynic effect ([4]; intrathecal, CCI animals): up to 1 h | minimum effective dose (MED) ([4]; intrathecal, CCI animals): 10 µg | duration of antiallodynic effect ([4]; intrathecal, CCI animals, listed as PD198306): 1 h

NS(=O)(=O)c1cc(C(=O)NOCC2CC2)c(Nc2ccc(I)cc2Cl)c(F)c1F [PD219622, 2-(2-chloro-4-iodo-phenylamino)-N-cyclopropylmethoxy-3,4-difluoro-5-sulfamoyl-benzamide]
IC50 [5]: 0.1 µM | effect on static allodynia ([1]; intrathecal 30µg): had no significant effect

CC(C)C[C@H](CN)CC(=O)O [pregabalin, reference compound]
streptozocin-induced static allodynia [2, 7]: significantly blocked | streptozocin-induced static allodynia [3, 7]: significantly blocked | CCI-induced static allodynia [4, 7]: significantly blocked | magnitude of the antiallodynic effect [1]: similar

O=C(O)c1cc([N+](=O)[O-])c(Nc2ccc(I)cc2Cl)c(F)c1Nc1ccc(I)cc1Cl [2,4-bis-(2-chloro-4-iodo-phenylamino)-3-fluoro-5-nitrobenzoic acid]
IC50 [6]: 0.0296 µM

COC(=O)c1cc(S(=O)(=O)N(C)C)c(F)c(F)c1Nc1ccc(I)cc1Cl [2-(2-chloro-4-iodo-phenylamino)-5-dimethylsulfamoyl-3,4-difluoro-benzoic acid methyl ester]
IC50 [6]: 0.222 µM

O=S(=O)(NOCC1CC1)c1ccc(F)c(F)c1Nc1ccc(I)cc1Cl [PD 0297447, 2-(2-Chloro-4-iodo-phenylamino)-N-cyclopropylmethoxy-3,4-difluoro-benzenesulfonamide]
IC50 [6]: 0.965 µM | IC50 [5]: 0.965 µM | effect on static allodynia ([1]; intrathecal 30µg): had no significant effect
